In PubChem BioAssay (NCI):
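Assay format: 96-well plates, 48-hour exposure. TGI marks complete inhibition of growth.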

Legend:
Assay in all cases: DTP human tumour cell line panel, 48 h
[1] = test system: EKVX NSCLC
[2] = test system: BT-549 breast
[3] = test system: SNB-19 CNS
[4] = test system: HCC-2998 colon
[5] = test system: MDA-MB-231 breast
[6] = test system: NCI-H23 lung
[7] = test system: MOLT-4 leukemia
[8] = test system: SF-268 CNS
[9] = test system: NCI/ADR-RES ovarian
[10] = test system: OVCAR-5 ovarian
[11] = test system: K-562 leukemia
[12] = test system: SK-MEL-28 melanoma
[13] = test system: MCF7 breast
[14] = test system: HOP-62 NSCLC
[15] = test system: SN12C renal
[16] = test system: DU-145 prostate
[17] = test system: SF-539 CNS
[18] = test system: HT29 colon
[19] = test system: UO-31 renal
[20] = test system: MDA-MB-435
[21] = test system: UACC-62 melanoma
[22] = test system: SK-MEL-2 melanoma
[23] = test system: OVCAR-3 ovarian
[24] = test system: NCI-H522 lung
[25] = test system: PC-3 prostate
[26] = test system: TK-10 renal
[27] = test system: COLO 205 colon
[28] = test system: HCT-15 colon
[29] = test system: SK-MEL-5 melanoma
[30] = test system: HS 578T breast
[31] = test system: HOP-92 NSCLC
[32] = test system: ACHN renal
[33] = test system: T-47D breast
[34] = test system: MDA-N
[35] = test system: SR leukemia
[36] = test system: IGROV1 ovarian
[37] = test system: HL-60(TB) leukemia
[38] = test system: 786-0 renal
[39] = test system: OVCAR-8 ovarian
[40] = test system: SW-620 colon
[41] = test system: KM12 colon
[42] = test system: U251 CNS
[43] = test system: OVCAR-4 ovarian
[44] = test system: A549 NSCLC
[45] = test system: SF-295 CNS
[46] = test system: LOX IMVI melanoma
[47] = test system: CAKI-1 renal
[48] = test system: RXF 393 renal
[49] = test system: M14 melanoma
[50] = test system: NCI-H460 lung
[51] = test system: A498 renal
[52] = test system: SNB-75 CNS
[53] = test system: NCI-H226 lung
[54] = test system: CCRF-CEM leukemia
[55] = test system: UACC-257 melanoma
[56] = test system: HCT-116 colon

Measured: TGI

OCC1OC(n2cnc3cccnc32)CC1O (stereo unspecified)
> 100 µM: all assays above
